{
  "source": "patent US20170296668A1",
  "about": "“METHODS OF INCREASING SOLUBILITY OF POORLY SOLUBLE COMPOUNDS AND METHODS OF MAKING AND USING FORMULATIONS OF SUCH COMPOUND” (VIZURI HEALTH SCIENCES LLC, priority 2009, published 2017)",
  "key": {"[1]": {"assay": "Nonoxynol-9 concentrates via thermal treatment process", "type": "physicochemical", "settings": "Table XVI", "procedure": "(§1) The concentrates were added to water and their aqueous solution characteristics noted."}, "[2]": {"assay": "Boiling of flavonoid in H2O & PS80 slurry", "type": "physicochemical", "settings": "2. H2O & PS80 slurry boiled; for solubility: water and polysorbate 80 slurry, aqueous with cosolvent or surfactant or cyclodextrin, thermodynamic from solid, read-out: SOLUBLE CONC. RANGE"}, "[3]": {"assay": "Aqueous solution clarity: water added to concentrate vs non-concentrate method", "procedure": "as §1"}, "[4]": {"assay": "Solubility in Polysorbate 80 via thermal treatment process", "settings": "for Prepared Thermal Treatment Concentration in Polysorbate 80: Table XV; for solubility: polysorbate 80, organic solvent or mixture, thermodynamic from solid; for PS80 Sol. Conc. - / Jordi PS800 Results: Table III; for Flavonoid in Solvent -: PS80, HPLC, thermal treatment concentrate", "procedure": "The concentration of apigenin in A/PS80 was measured by HPLC-MS."}, "[5]": {"assay": "Solubility in Ceteareth-20 via thermal treatment process", "settings": "thermal treatment >200° C."}, "[6]": {"assay": "Solubility of concentrates in oil solvents", "type": "physicochemical", "source_text": "Borage oil was obtained from Sigma-Aldrich (St. Louis, Mo.) and Mineral Oil, USP, Canola Oil and Jojoba Oil from Spectrum Chemical of New Brunswick, N.J."}, "[7]": {"assay": "Solubility in PEG 400 / PEG 300 via thermal treatment process", "settings": "for Flavonoid in Solvent -: PEG-400, HPLC, thermal treatment concentrate; for Jordi PEG400 Results / PEG400 Sol. Conc.: Table III", "procedure": "• The objective of this work was to quantify a total of six different flavonoids in PS80 and PEG-400. The samples were also analyzed qualitatively to look for signs of degradation of the solvents due to the elevated temperatures required of the thermal treatment process. • This project was divided into three distinct phases: method validation/development, quantitation of the individual flavones, and qualitative analysis to look for signs of PS80/PEG400 degradation."}, "[8]": {"settings": "cited from earlier work; for Lit. H2O Sol. -: Table III; for WATER SOLUBILITY (mg/ml): saturation concentrations, published sources"}, "[9]": {"assay": "Supersaturation test by addition of a crystal"}, "EpiDerm tissue": {"system": "EpiDerm tissue", "type": "cell-based", "settings": "time to reduce tissue viability to 50%; unaudited values", "procedure": "• The purpose of this study was to compare the acute dermal irritation potential of 5 Apigenin containing formulations using the Epiderm MTT ET50 assay. The time required for a test article to reduce tissue viability to 50%, i.e. ET50, correlates well with the traditional in vivo rabbit skin irritation test • This study was conducted at MB Research Laboratories (Spinnerstown, Pa. to conduct the EpiDerm MTT Assay. EpiDerm tissue was incubated with Api Genesis formulations for 1, 4 and 24 hours (two tissues per time point for each test article). Triton X-100, 1%, was used as positive control. After incubation, the tissues were rinsed to remove test articles and cytotoxicity was determined with MTT dye [3-(4, 5-Dimethylthiazol-2-yl)-2, 5-diphenyltetrazolium bromide, Thiazolyl blue]. Only viable cells are capable of enzymatic reduction of MTT into a purple formazan product that is quantitatively measured following extraction from the tissue."}, "[10]": {"settings": "PS80, 1. Thermal Treatment method"}},
  "note": "Like-named read-outs stand apart in the source and are kept apart here.",
  "data": [
    {"compound": "O=c1cc(-c2ccc(O)c(O)c2)oc2cc(O)cc(O)c12", "note": "[Luteolin, 3′,4′,5,7-tetrahydroxyflavone]", "values": [
      {"measurement": "Prepared Thermal Treatment Concentration in Nonoxynol-9", "setting": "[1]", "result": 50, "unit": "mg/mL"},
      {"measurement": "SOLUBLE CONC. RANGE (% wt/wt)", "setting": "[2]", "result": "≤ 5", "unit": "%"},
      {"measurement": "solubility", "setting": "[2]", "result": "≤ 50", "unit": "mg/mL"},
      {"measurement": "non-concentrate method: compound, nonoxynol-9 and 17 ml water heated to near boiling, cooled", "setting": "[3]", "result": "did precipitate"},
      {"measurement": "Comments when 17 ml of H2O was added to 3 gms of the concentrate", "setting": "[3]; Nonoxynol-9 concentrate", "result": "A clear soln formed."},
      {"measurement": "non-concentrate method: compound, polysorbate 80 and 17 ml water heated to near boiling, cooled", "setting": "[3]", "result": "did precipitate"},
      {"measurement": "Comments when 17 ml of H2O was added to 3 gms of the concentrate", "setting": "[3]; Polysorbate 80 concentrate", "result": "A clear soln formed."},
      {"measurement": "SOLUBLE CONC. RANGE (% wt/wt)", "setting": "[4]; [10]", "result": "> 8", "unit": "%"},
      {"measurement": "Prepared Thermal Treatment Concentration in Polysorbate 80", "setting": "[4]", "result": 50, "unit": "mg/mL"},
      {"measurement": "solubility", "setting": "[4]", "result": "> 80", "unit": "mg/mL"},
      {"measurement": "PS80 Sol. Conc. -", "setting": "[4]; thermal treatment", "result": ">80", "unit": "mg/mL"},
      {"measurement": "Conc. In Ceteareth-20", "setting": "[5]", "result": "~10000", "unit": "µg/mL"},
      {"measurement": "solubility in the test oils", "setting": "[6]; mineral, jojoba, canola, borage oils", "result": "insoluble"},
      {"measurement": "concentration of concentrate in polyglyceryl-4 oleate", "setting": "[6]; room temperature", "result": 10000, "unit": "µg/mL"},
      {"measurement": "Molar Ratio PEG400/API (mole/mole)", "setting": "[7]", "result": 11.1, "unit": "mole/mole"},
      {"measurement": "Flavonoid in Solvent -", "setting": "[7]", "result": 72.5, "unit": "mg/mL"},
      {"measurement": "Jordi PEG400 Results", "setting": "[7]; thermal treatment", "result": 72.5, "unit": "mg/mL"},
      {"measurement": "PEG400 Sol. Conc.", "setting": "[7]; thermal treatment", "result": "70 to 90", "unit": "mg/mL"},
      {"measurement": "Lit. H2O Sol. -", "setting": "[8]", "result": 0.38, "unit": "mg/mL"},
      {"measurement": "Literature Solubility in H2O @ 25° C.", "setting": "[8]; Table XV", "result": 0.14, "unit": "mg/mL"},
      {"measurement": "Literature Solubility in H2O @ 25° C.", "setting": "[8]; Table XVI", "result": 0.14, "unit": "mg/mL"}
    ]},
    {"compound": "Cc1cccc(Nc2ccccc2C(=O)O)c1C", "note": "[Mefenamic Acid, reference compound]", "values": [
      {"measurement": "Prepared Thermal Treatment Concentration in Nonoxynol-9", "setting": "[1]", "result": 10, "unit": "mg/mL"},
      {"measurement": "non-concentrate method: compound, nonoxynol-9 and 17 ml water heated to near boiling, cooled", "setting": "[3]", "result": "did precipitate"},
      {"measurement": "Comments when 17 ml of H2O was added to 3 gms of the concentrate", "setting": "[3]; Nonoxynol-9 concentrate", "result": "A clear soln formed."},
      {"measurement": "PEG400 Solubility: behaviour when H2O was added", "setting": "[3]; PEG400 solution + H2O", "result": "Nost Mefenamic Acid ppt. out when H2O was added"},
      {"measurement": "PS80 Solubility: behaviour when H2O was added", "setting": "[3]; PS80 solution + H2O", "result": "Nost Mefenamic Acid dissolved when H2O was added"},
      {"measurement": "non-concentrate method: compound, polysorbate 80 and 17 ml water heated to near boiling, cooled", "setting": "[3]", "result": "did precipitate"},
      {"measurement": "Comments when 17 ml of H2O was added to 3 gms of the concentrate", "setting": "[3]; Polysorbate 80 concentrate", "result": "A clear soln formed."},
      {"measurement": "Prepared Thermal Treatment Concentration in Polysorbate 80", "setting": "[4]", "result": 10, "unit": "mg/mL"},
      {"measurement": "PS80 Solubility: amount solubilized, remained solubilized @ Room Temp.", "setting": "[4]; thermal treatment", "result": 1, "unit": "wt %"},
      {"measurement": "PEG400 Solubility: amount solubilized, remained solubilized @ Room Temp.", "setting": "[7]; thermal treatment", "result": 1, "unit": "wt %"},
      {"measurement": "PEG400 Solubility: supersaturation", "setting": "[9]; PEG400 solution", "result": "Not Sup. Sat."},
      {"measurement": "PS80 Solubility: supersaturation", "setting": "[9]; PS80 solution", "result": "Not Sup. Sat."},
      {"measurement": "Literature Solubility in H2O @ 25° C.", "setting": "[8]; Table XV", "result": 0.004, "unit": "mg/mL"},
      {"measurement": "Literature Solubility in H2O @ 25° C.", "setting": "[8]; Table XVI", "result": 0.004, "unit": "mg/mL"}
    ]},
    {"compound": "COc1ccc([C@@H]2CC(=O)c3c(O)cc(O[C@@H]4O[C@H](CO[C@@H]5O[C@@H](C)[C@H](O)[C@@H](O)[C@H]5O)[C@@H](O)[C@H](O)[C@H]4O)cc3O2)cc1O", "note": "[Hesperidin]", "values": [
      {"measurement": "SOLUBLE CONC. RANGE", "setting": "[2]", "result": "< 10", "unit": "mg/mL"},
      {"measurement": "SOLUBLE CONC. RANGE (% wt/wt)", "setting": "[2]", "result": "< 1", "unit": "%"},
      {"measurement": "SOLUBLE CONC. RANGE", "setting": "[4]; [10]", "result": "< 20", "unit": "mg/mL"},
      {"measurement": "Molar Ratio PEG400/API (mole/mole)", "setting": "[7]", "result": 21.2, "unit": "mole/mole"},
      {"measurement": "Flavonoid in Solvent -", "setting": "[7]", "result": "81.0 ± 8.0", "unit": "mg/mL"},
      {"measurement": "Jordi PEG400 Results", "setting": "[7]; thermal treatment", "result": 81, "unit": "mg/mL"},
      {"measurement": "Lit. H2O Sol. -", "setting": "[8]", "result": "0.05 to 3", "unit": "mg/mL"},
      {"measurement": "WATER SOLUBILITY (mg/ml)", "setting": "[8]", "result": "from 0.05 to 3 mg/ml"}
    ]},
    {"compound": "Oc1ccc(C=Cc2cc(O)cc(O)c2)cc1", "note": "[Resveratrol]", "values": [
      {"measurement": "SOLUBLE CONC. RANGE (% wt/wt)", "setting": "[4]; [10]", "result": "> 8", "unit": "%"},
      {"measurement": "Flavonoid in Solvent -", "setting": "[4]", "result": 127.5, "unit": "mg/mL"},
      {"measurement": "solubility", "setting": "[4]", "result": "> 80", "unit": "mg/mL"},
      {"measurement": "Jordi PS800 Results", "setting": "[4]; thermal treatment", "result": 127.5, "unit": "mg/mL"},
      {"measurement": "PS80 Sol. Conc. -", "setting": "[4]; thermal treatment", "result": ">80", "unit": "mg/mL"},
      {"measurement": "PEG400 Sol. Conc.", "setting": "[7]; thermal treatment", "result": "80 to 100", "unit": "mg/mL"},
      {"measurement": "WATER SOLUBILITY (mg/ml)", "setting": "[8]", "result": "*0.1 to 0.3 mg/ml"}
    ]},
    {"compound": "Triton X-100", "values": [
      {"measurement": "ET50", "setting": "EpiDerm tissue", "result": 5.9, "unit": "h"}
    ]},
    {"compound": "O=c1c(O)c(-c2ccc(O)c(O)c2)oc2cc(O)cc(O)c12", "note": "[Quercetin]", "values": [
      {"measurement": "SOLUBLE CONC. RANGE (% wt/wt)", "setting": "[2]", "result": "<<7%"},
      {"measurement": "SOLUBLE CONC. RANGE (% wt/wt)", "setting": "[4]; [10]", "result": "> 7", "unit": "%"},
      {"measurement": "Flavonoid in Solvent -", "setting": "[4]", "result": 65.0, "unit": "mg/mL"},
      {"measurement": "solubility", "setting": "[4]", "result": "> 70", "unit": "mg/mL"},
      {"measurement": "Jordi PS800 Results", "setting": "[4]; thermal treatment", "result": 65, "unit": "mg/mL"},
      {"measurement": "PS80 Sol. Conc. -", "setting": "[4]; thermal treatment", "result": ">80", "unit": "mg/mL"},
      {"measurement": "Conc. In Ceteareth-20", "setting": "[5]", "result": "~10000", "unit": "µg/mL"},
      {"measurement": "PEG400 Sol. Conc.", "setting": "[7]; thermal treatment", "result": "60 to 80", "unit": "mg/mL"},
      {"measurement": "supersaturation in Ceteareth-20", "setting": "[9]; Room Temp.", "result": "solubilization. Not Super Saturated at Room Temp. via"},
      {"measurement": "Lit. H2O Sol. -", "setting": "[8]", "result": "<1", "unit": "mg/mL"},
      {"measurement": "WATER SOLUBILITY (mg/ml)", "setting": "[8]", "result": "*<1 mg/ml"}
    ]},
    {"compound": "C[C@@H]1O[C@@H](OC[C@H]2O[C@@H](Oc3c(-c4ccc(O)c(O)c4)oc4cc(O)cc(O)c4c3=O)[C@H](O)[C@@H](O)[C@@H]2O)[C@H](O)[C@H](O)[C@H]1O", "note": "[Rutin]", "values": [
      {"measurement": "solubility", "setting": "[2]", "result": "< 15", "unit": "mg/mL"},
      {"measurement": "SOLUBLE CONC. RANGE (% wt/wt)", "setting": "[4]; [10]", "result": "< 1", "unit": "%"},
      {"measurement": "Flavonoid in Solvent -", "setting": "[4]", "result": 14.3, "unit": "mg/mL"},
      {"measurement": "solubility", "setting": "[4]", "result": "< 10", "unit": "mg/mL"}
    ]}
  ]
}
